Patent US8362033B1, “Compounds and methods to dysregulate CA2+ homeostasis for cancer treatment” (University of South Florida, priority 2008, dated 2013)
pIC50: −log10 of the molar value. Read-outs that look alike come from different tables or passages of the source.

Columns and labels:
U937 cells [1] = assay: Cell death by ER stressors in suspension or fibronectin-adhered U937 cells; type: cell-based; details: for Cell death in suspension and fibronectin adhered tumor cells: FIGS. 2(a)-(c); for Difference in viability between suspension and fibronectin-adherent cells: concentration range tested
Experimental: FIGS. 2(a)-(c) are graphs showing agents which evoke ER stress overcome cell adhesion mediated drug resistance in U937 cells. Percent of specific cell death induced in U937 cells in suspension (Suspension) or following adhesion to plates coated in fibronectin (Fibronectin) as a result of incubation in (A) tunicamycin, (B) thapsigargin, or (C) brefeldin A at the indicated concentrations.

TRPM7 = target: T1, TRPM7 (Homo sapiens, UniProt Q96QT4); details: cited from earlier work; for Inhibition of TRPM7 channels at 10 μM / Concentration required to inhibit TRPM7: HEK-293 cells
T1 construct: host or cells: HEK-293 (heterologous expression, in the cited studies)
T1 sequence (Q96QT4 whole entry, species assumed): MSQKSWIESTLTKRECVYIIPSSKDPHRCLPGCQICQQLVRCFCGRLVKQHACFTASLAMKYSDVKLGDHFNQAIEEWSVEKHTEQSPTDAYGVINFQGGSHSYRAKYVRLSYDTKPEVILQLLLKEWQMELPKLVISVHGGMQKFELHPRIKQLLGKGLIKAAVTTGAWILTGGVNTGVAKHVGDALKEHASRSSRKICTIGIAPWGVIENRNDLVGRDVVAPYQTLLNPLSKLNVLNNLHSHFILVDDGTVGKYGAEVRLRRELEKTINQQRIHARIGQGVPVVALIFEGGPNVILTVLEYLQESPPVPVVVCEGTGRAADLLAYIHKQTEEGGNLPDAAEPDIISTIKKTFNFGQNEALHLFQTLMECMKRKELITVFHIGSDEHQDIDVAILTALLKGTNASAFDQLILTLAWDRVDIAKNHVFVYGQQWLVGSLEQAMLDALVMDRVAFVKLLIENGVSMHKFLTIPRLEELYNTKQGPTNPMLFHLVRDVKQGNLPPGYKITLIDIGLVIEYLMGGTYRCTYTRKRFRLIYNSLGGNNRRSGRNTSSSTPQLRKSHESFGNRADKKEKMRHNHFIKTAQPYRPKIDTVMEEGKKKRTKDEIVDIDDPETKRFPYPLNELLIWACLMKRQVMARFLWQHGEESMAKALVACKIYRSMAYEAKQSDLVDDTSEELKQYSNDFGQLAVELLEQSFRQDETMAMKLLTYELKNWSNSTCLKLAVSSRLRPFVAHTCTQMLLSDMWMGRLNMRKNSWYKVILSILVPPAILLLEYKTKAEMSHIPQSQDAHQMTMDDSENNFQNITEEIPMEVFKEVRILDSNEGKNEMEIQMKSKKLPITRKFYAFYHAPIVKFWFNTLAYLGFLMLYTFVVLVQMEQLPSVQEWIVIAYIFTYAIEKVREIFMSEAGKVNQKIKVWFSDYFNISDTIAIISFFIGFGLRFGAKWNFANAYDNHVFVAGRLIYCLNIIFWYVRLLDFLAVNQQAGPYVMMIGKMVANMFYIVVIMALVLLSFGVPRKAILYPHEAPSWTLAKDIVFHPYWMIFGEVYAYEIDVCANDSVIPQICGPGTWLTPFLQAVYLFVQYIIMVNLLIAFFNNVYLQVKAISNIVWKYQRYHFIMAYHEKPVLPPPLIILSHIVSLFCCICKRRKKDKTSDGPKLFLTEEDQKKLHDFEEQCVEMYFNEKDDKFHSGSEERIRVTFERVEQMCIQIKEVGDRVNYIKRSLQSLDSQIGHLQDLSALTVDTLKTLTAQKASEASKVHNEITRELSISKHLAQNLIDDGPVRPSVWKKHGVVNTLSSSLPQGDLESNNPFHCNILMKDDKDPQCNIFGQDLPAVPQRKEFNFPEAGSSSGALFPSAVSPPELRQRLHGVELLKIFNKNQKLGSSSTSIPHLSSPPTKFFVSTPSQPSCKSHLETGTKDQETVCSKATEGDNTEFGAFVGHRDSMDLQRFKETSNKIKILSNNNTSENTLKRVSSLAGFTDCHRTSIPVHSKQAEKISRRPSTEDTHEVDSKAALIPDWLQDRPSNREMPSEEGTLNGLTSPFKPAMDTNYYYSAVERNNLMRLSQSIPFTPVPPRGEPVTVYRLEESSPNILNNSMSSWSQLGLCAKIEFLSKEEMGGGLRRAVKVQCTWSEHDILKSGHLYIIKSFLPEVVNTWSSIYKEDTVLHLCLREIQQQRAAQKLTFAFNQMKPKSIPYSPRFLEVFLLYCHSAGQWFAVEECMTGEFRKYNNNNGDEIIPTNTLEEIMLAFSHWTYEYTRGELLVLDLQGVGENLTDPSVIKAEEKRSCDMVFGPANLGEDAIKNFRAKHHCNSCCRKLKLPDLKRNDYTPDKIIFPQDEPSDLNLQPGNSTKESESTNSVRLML

8226 cells = assay: Fura-2 intracellular Ca2+ fluorometry in 8226 cells; type: cell-based, human
Experimental: (§1) Fura-2 loading was carried out incubating the plated cells for 1 hour at room temperature in physiological saline solution (PSS) consisting of (in mM): 140 NaCl, 3 KCl, 2.5 CaCl2, 1.2 MgCl2, 7.7 glucose and 10 HEPES (pH to 7.2 with NaOH), which also contained 1 μM of the membrane permeable ester form of fura-2, acetoxymethylester (fura-2 AM) fura-2 acetoxymethylester (fura-2 AM, +0.1% DMSO) and 0.1% dimethyl sulfoxide (DMSO). The coverslips were then washed in PSS (fura-2-AM free) prior to the experiments being carried out.
(§2) A DG-4 high-speed wavelength switcher (Sutter Instruments Co., Novato, Calif.) was used to apply alternating excitation light, and fluorescent emission was captured using a Sensicam digital CCD camera (Cooke Corporation, Auburn Hills, Mich.) and recorded with Slidebook 3.0 software (Intelligent Imaging Innovations, Denver, Colo.).

U937 cells [2] = details: 5 μM tipifarnib, adhered U937 cells, p<0.001
Experimental: as §1, §2
(§3) Therefore, the effects of tipifarnib on intracellular Ca^2+ concentrations in tumor cells were studied in adhered U937 leukemic cells using fura-2 mediated Ca^2+ fluorometry.

U937 cells [3] = assay: MTT cytotoxicity / growth rate assay; type: cell-based
Experimental: Cytotoxicity analysis was determined by using the 3-(4,5-dimethylthiazol-2-yl)-2,5-diphenyltetrazolium bromide (MTT) dye reduction assay as previously described (Damiano J S, et al. Cell adhesion mediated drug resistance (CAM-DR): role of integrins and resistance to apoptosis in human myeloma cell lines. Blood. 1999 Mar. 1; 93(5):1658-67). For all cytotoxicity studies cells were exposed to both calcium modulating agents and tipifarnib simultaneously for 72 hours. After 72 hours at 37° C., 50 μl of MTT (Sigma Chemical) was added to each well and cells were incubated for an additional four hours. Plates were spun for 5 minutes at 1200 rpm in a Sorvall RT6000D table top centrifuge (Asheville, N.C.), supernatants were removed, and water-insoluble product was dissolved in 100 μl of 100% DMSO. Plates were shaken for 30 seconds and absorbance read at 540 nm on a Wallac Victor-2 1420 Multilabel Counter (PerkinElmer, Torrance, Calif.). All experiments were done in triplicate.
The effects of the Ca^2+ channel inhibition, using La^3+ and Gd^3+, were tested on survival of U937 cells.

TRPM2 = details: cited from earlier work
8226/R5 cells = assay: Fura-2 intracellular Ca2+ fluorometry in tipifarnib-resistant 8226/R5 cells; type: cell-based, human; details: 5 μM tipifarnib with 100 μM 2-APB
Experimental: as §1, §2

Orai 1 channels = Orai 1 channels (Homo sapiens, UniProt Q96D31); details: endogenously and exogenously expressed; cited from earlier work
Orai 1 channels, sequence (Q96D31 whole entry): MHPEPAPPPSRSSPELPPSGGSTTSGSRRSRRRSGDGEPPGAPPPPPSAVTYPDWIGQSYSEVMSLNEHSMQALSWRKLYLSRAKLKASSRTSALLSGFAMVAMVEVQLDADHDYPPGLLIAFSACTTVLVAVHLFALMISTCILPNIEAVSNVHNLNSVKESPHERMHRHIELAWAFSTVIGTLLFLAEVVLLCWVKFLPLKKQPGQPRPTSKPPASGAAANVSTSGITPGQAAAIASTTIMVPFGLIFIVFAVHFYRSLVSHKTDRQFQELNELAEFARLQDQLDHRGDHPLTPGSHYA

Orai2 = Orai2 (Homo sapiens, UniProt Q96SN7); details: cited from earlier work
Orai2, sequence (Q96SN7 whole entry, species assumed): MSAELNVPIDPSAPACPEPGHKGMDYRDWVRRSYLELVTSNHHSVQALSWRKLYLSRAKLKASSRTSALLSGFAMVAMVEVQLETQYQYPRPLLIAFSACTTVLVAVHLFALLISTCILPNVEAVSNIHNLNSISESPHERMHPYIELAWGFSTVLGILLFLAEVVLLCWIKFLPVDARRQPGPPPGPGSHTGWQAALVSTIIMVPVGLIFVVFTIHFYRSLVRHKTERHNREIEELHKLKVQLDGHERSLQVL

Orai3 channels = Orai3 channels (Homo sapiens, UniProt Q9BRQ5); details: up to 200 μM; cited from earlier work
U937 cells [4] = assay: Fura-2 intracellular Ca2+ fluorometry in adhered U937 cells; details: 5 μM tipifarnib, 10 μM FTI-277, 10 μM FTI-2153
Experimental: as §1, §2, §3

Compound: C[C@H]1CCC/C=C/[C@@H]2C[C@H](O)C[C@H]2[C@H](O)/C=C/C(=O)O1 [Brefeldin A]
- Cell death in suspension and fibronectin adhered tumor cells (U937 cells [1]): dose dependent increase in cell death
- Difference in viability between suspension and fibronectin-adherent cells (U937 cells [1]): no significant difference

Compound: [Gd+3] [Gd^3+]
- Inhibition of TRPM7 channels at 10 μM (TRPM7): failed to inhibit TRPM7 channels
- Concentration required to inhibit TRPM7 (TRPM7): 1 mM

Compound: Cn1cncc1[C@@](N)(c1ccc(Cl)cc1)c1ccc2c(c1)c(-c1cccc(Cl)c1)cc(=O)n2C [tipifarnib, Tipifarnib]
- Amplitude of the [Ca2+]i response (8226 cells; 5 µM): 215 ± 17 nM
- Change in [Ca2+]i in 8226 cells, greater than in 8226/R5 cells (8226 cells; 5 μM tipifarnib): > 250%
- Increase in [Ca2+]i relative to vehicle alone (DMSO) (U937 cells [2]): more than 5 fold

Compound: [Cl][La]([Cl])[Cl] [La^3+, lanthanum chloride]
- Effect of modulator on tipifarnib-induced growth inhibition / cell survival (U937 cells [3]; U937 cells, MTT, 72 hours, 200 nM La3+, Gd3+ 100, ruthenium red 100 nM, 2-APB 5 μM and 100 μM): statistically significant increase in survival of U937 cells
- Inhibition of TRPM2 channels (TRPM2; La3+ ≦100 μM): not inhibited
- Inhibition of TRPM7 channels at 10 μM (TRPM7): failed to inhibit TRPM7 channels
- Concentration required to inhibit TRPM7 (TRPM7): 1 mM

Compound: tunicamycin
- Cell death in suspension and fibronectin adhered tumor cells (U937 cells [1]): dose dependent increase in cell death
- Difference in viability between suspension and fibronectin-adherent cells (U937 cells [1]): no significant difference

Compound: NCCOB(c1ccccc1)c1ccccc1 [2-APB, 2-aminoethoxydiphenyl borate]
- Amplification of tipifarnib-evoked increase in [Ca2+]i by 2-APB (8226 cells; 8226 cells, 5 μM tipifarnib with 100 μM 2-APB): ~400%
- Amplification of tipifarnib-evoked increase in [Ca2+]i by 2-APB (8226/R5 cells): ~250%
- Effect of modulator on tipifarnib-induced growth inhibition / cell survival (U937 cells [3]): enhanced cell death
- Block of TRPM2 channels at 150 μM (second study) (TRPM2; HEK-293 cells, 150 μM 2-APB): not blocked
- pIC50 (TRPM2; heterologously expressed in HEK-293 cells, read-out: IC50 for block of TRPM2 channels): 6.00
- Block of TRPM7-evoked currents (TRPM7; 100 μM 2-APB): ~25%
- Modulation of Orai1 channels by 2-APB (Orai 1 channels): potentiated at concentrations of 2-APB below 5 μM but inhibited by higher concentrations
- Modulation of Orai2 by 2-APB (Orai2): transient potentiation at concentrations of 2-APB≦20 μM and also blocked by higher concentrations
- Modulation of Orai3 channels by 2-APB (Orai3 channels): potentiated by 2-APB even at 50 μM and do not seem to be blocked by concentrations as high as 200 μM

Compound: C/C=C(/C)C(=O)O[C@H]1C(C)=C2[C@H]([C@@H]1OC(=O)CCCCCCC)[C@@](C)(OC(C)=O)C[C@H](OC(=O)CCC)[C@@]1(O)[C@H]2OC(=O)[C@@]1(C)O [thapsigargin]
- Cell death in suspension and fibronectin adhered tumor cells (U937 cells [1]): dose dependent increase in cell death
- Difference in viability between suspension and fibronectin-adherent cells (U937 cells [1]): no significant difference

Compound: COC(=O)[C@H](CCSC)NC(=O)c1ccc(NC[C@@H](N)CS)cc1-c1ccccc1 [FTI-277]
- Elevation of [Ca2+]i (U937 cells [4]): failed to stimulate elevations in [Ca^2+]i
